This is an account of results in US6462055B2, “Alpha-methylbenzyl-containing thiourea inhibitors of herpes viruses containing a phenylenediamine group” (Wyeth, priority 1998, dated 2002).

Values after ≈ are worked out from the molar mass of the structure shown.

The test system of one assay is VZV strain Ellen. The assay is described as follows: VZV Antiviral (ELISA) Assay in human foreskin fibroblast cells. Type of assay: cell-based, varicella-zoster virus. The following applies: for IC50 / inhibition at 10 µg/mL: Human alphaherpesvirus 3, Fibroblast; for IC50: read-out: IC50 (ug/ml) VZV; for inhibition at 10 µg/mL: read-out: % inhibition 10 ug/ml VZV, 10 ug/ml. On the procedure:
For the generation of stock VZV to be used in the assay, VZV strain Ellen (ATCC #VR-1367) is used to infect human foreskin fibroblast (HFF) cells at low multiplicity (less than 0.1) and incubated overnight at 37° C. in 5% CO2. After the overnight incubation, the mixture of uninfected and VZV-infected HFF infected cells are then harvested and added to each well of 96-well plates (3.5×10^4 cells in 100 μl DMEM supplemented with 2% FBS) which contain test compound or the reference standard drug control (in 100 μl DMEM supplemented with 2% FBS per well). These cells are incubated for three days at 37° C. in 5% CO2, then fixed for ELISA assay. The primary antibody is murine anti-VZV glycoprotein II monoclonal antibody (Applied Biosystems, Inc. #13-145-100) and the secondary antibody is goat anti-mouse IgG linked to β-galactosidase. Thus the extent of viral replication is determined by assessing β-galactosidase activity by quantifying the generation of the 4-methyl umbelliferone fluorescent cleavage product after addition of the methyl umbelliferyl-β-D-galactoside (Sigma #M1633) substrate on a microfluorimeter (365 nm for excitation and 450 nm for emission). Antiviral activity (IC50) of the test compound is determined by comparing the flourescence obtained in absence of compound to that obtained in the presence of compound.
(In general: ELISA stands for enzyme-linked immunosorbent assay.)

In a further assay the test system is HSV-1. The assay is described as follows: HSV Antiviral (ELISA) Assay in Vero cells. Type of assay: cell-based, herpes simplex virus type 1. The following applies: HSV-1, Vero cells; for IC50: Human alphaherpesvirus 1, read-out: IC50 (ug/ml) HSV. The procedure:
Vero cells (ATCC #CCL-81) are plated on 96-well tissue culture plates at 3.5×10^4 cells per 100 μl tissue culture DMEM (Dulbeccos modified Eagle media) supplemented with 2% fetal bovine serum (FBS) in each well. After overnight incubation @ 37° C. (in 5% CO2) and 30 minutes prior to infection with HSV-1 (multiplicity of infection equal to 0.006), cells are either untreated, or treated with test compound (multiple concentrations) or reference standard drug control. After approximately 24 hours post-infection incubation @ 37° C. (in 5% CO2), cells are fixed for ELISA assay. The primary antibody is murine anti-HSV glycoprotein D monoclonal primary antibody and the secondary antibody is goat anti-mouse IgG linked to β-galactosidase. Thus the extent of viral replication is determined by assessing β-galactosidase activity by quantifying the generation of the 4-methyl umbelliferone fluorescent cleavage product after addition of the methyl umbelliferyl-β-D-galactoside (Sigma #M1633) substrate on a microfluorimeter (365 nm for excitation and 450 nm for emission). Antiviral activity (IC50) of the test compound is determined by comparing the flourescence obtained in absence of compound to that obtained in the presence of compound.

Turning to `CC(NC(=S)Nc1ccc(NC(=O)c2cc3ccccc3cn2)cc1)c1ccc(Br)cc1` (centres unmarked) [Example 987, Isoquinoline-3-carboxylic acid (4-{3-[1-(4-bromo-phenyl)-ethyl]-thioureido}-phenyl)-amide], the results for the IC50 in the assay with VZV strain Ellen and with HSV-1 were 0.046 µg/mL (≈ 0.091 µM) and 3 µg/mL (≈ 5.94 µM), respectively.

Consider `O=C(Nc1ccc(NC(=S)Nc2ccccc2Cl)cc1)c1ccccc1F` [Example 948, N-{4-[3-(2-Chloro-phenyl)-thioureido]-phenyl}-2-fluoro-benzamide], for which, in the assay on VZV strain Ellen, the inhibition at 10 µg/mL was found to be 4% and the IC50 is greater than 10 µg/mL. For the same compound, in the assay on HSV-1, the IC50 amounted to 6 µg/mL (≈ 15 µM).

Take `CC(NC(=S)Nc1ccc(NC(=O)c2ccccc2F)cc1)c1cccc(C#N)c1` (centres unmarked) [Example 791]: the figures for the IC50 in the assay on VZV strain Ellen and in the assay on HSV-1 were 7 µg/mL (≈ 16.7 µM) and greater than 10 µg/mL, respectively.

Take `CC(NC(=S)Nc1ccc(NC(=O)c2nccc3ccccc23)cc1)c1ccc(C#N)cc1` (centres unmarked) [Example 979, Isoquinoline-1-carboxylic acid (4-{3-[1-(4-cyano-phenyl)-ethyl]-thioureido}-phenyl)-amide]: the IC50 in the assay with VZV strain Ellen is 0.13 µg/mL (≈ 0.288 µM); with HSV-1 it was greater than 10 µg/mL.

On to `C[C@H](NC(=S)Nc1ccc(NC(=O)c2ccccc2F)cc1)c1ccc(Cl)cc1` [Example 1015, N-(4-{3-[(1S)-1-(4-Chloro-phenyl)-ethyl]-thioureido}-phenyl)-2-fluorobenzamide], for which the IC50 in the assay with VZV strain Ellen is 0.03 µg/mL (≈ 0.0701 µM); in the assay on HSV-1, greater than 10 µg/mL.

Consider `COc1cccc(C(=O)Nc2ccc(NC(=S)Nc3cc(Cl)c(OC)c(Cl)c3)cc2)c1` [Example 875, N-{4-[3-(3,5-Dichloro-4-methoxy-phenyl)thioureido]-phenyl}-3-methoxy-benzamide], for which, in the assay with VZV strain Ellen, the inhibition at 10 µg/mL stood at 20% and the IC50 is greater than 10 µg/mL. Besides, the IC50 with HSV-1 is 6 µg/mL (≈ 12.6 µM).

Take `CC(NC(=S)Nc1ccc(NC(=O)c2cc3ccccc3cn2)cc1)c1ccc(F)cc1` (centres unmarked) [Example 984, Isoquinoline-3-carboxylic acid (4-{3-[1-(4-fluoro-phenyl)ethyl]-thioureido}-phenyl)-amide]: the IC50 with VZV strain Ellen was determined as 0.08 µg/mL (≈ 0.18 µM); in the assay with HSV-1, 7.2 µg/mL (≈ 16.2 µM).

Consider `COc1cccc(C(=O)Nc2ccc(NC(=S)Nc3ccc(OC)c(Cl)c3)cc2)c1` [Example 819, N-{4-[3-(3-Chloro-4-methoxy-phenyl)-thioureido]-phenyl}-3-methoxy-benzamide], for which, in the assay on VZV strain Ellen, the inhibition at 10 µg/mL was 93% and the IC50 stood at 2.5 µg/mL (≈ 5.66 µM). Moreover, the IC50 in the assay with HSV-1 came to 6 µg/mL (≈ 13.6 µM).

With `CC(NC(=S)Nc1ccc(NC(=O)c2nccc3ccccc23)cc1)c1ccc(Br)cc1` (centres unmarked) [Example 978, Isoquinoline-1-carboxylic acid (4-{3-[1-(4-bromo-phenyl)ethyl]-thioureido}-phenyl)-amide], the values for the IC50 with VZV strain Ellen and with HSV-1 were 0.04 µg/mL (≈ 0.0791 µM) and greater than 10 µg/mL, respectively.

As for `COc1ccc(NC(=S)Nc2ccc(NC(=O)c3ccccc3)cc2)cc1Cl` [Example 817, N-{4-[3-(3-Chloro-4-methoxy-phenyl)-thioureido]-phenyl}-benzamide], in the assay on VZV strain Ellen, the inhibition at 10 µg/mL came out at 66%. Also, the IC50 is 12 µg/mL (≈ 29.1 µM) with VZV strain Ellen and 1 µg/mL (≈ 2.43 µM) in the assay with HSV-1.

With `COc1c(Cl)cc(NC(=S)Nc2ccc(NC(=O)c3cccc(F)c3)cc2)cc1Cl` [Example 872, N-{4-[3-(3,5-Dichloro-4-methoxy-phenyl)-thioureido]-phenyl}-3-fluoro-benzamide], in the assay with VZV strain Ellen, the inhibition at 10 µg/mL amounted to 28% and the IC50 is greater than 10 µg/mL. Further, the IC50 in the assay on HSV-1 was found to be 4 µg/mL (≈ 8.61 µM).

Take `CN(c1ccc(NC(=S)Nc2ccc(NC(=O)c3ccccc3F)cc2)cc1Cl)C1CCN(Cc2ccccc2)C1` (centres unmarked) [Example 857, N-[4-(3-{4-[(1-Benzyl-pyrrolidin-3-yl)-methyl-amino]-3-chloro-phenyl}-thioureido)-phenyl]-2-fluoro-benzamide]: the inhibition at 10 µg/mL in the assay on VZV strain Ellen worked out at 80%. Moreover, the IC50 in the assay on VZV strain Ellen came out at 7 µg/mL (≈ 11.9 µM); with HSV-1, 2 µg/mL (≈ 3.4 µM).

Regarding `CN(C)c1ccc(NC(=S)Nc2ccc(NC(=O)c3ccccc3F)cc2)cc1Cl` [Example 852, N-{4-[3-(3-Chloro-4-dimethylamino-phenyl)-thioureido]-phenyl}-2-fluoro-benzamide], in the assay with VZV strain Ellen, the inhibition at 10 µg/mL is 80% and the IC50 came to 6.5 µg/mL (≈ 14.7 µM). For the same compound, the IC50 in the assay with HSV-1 was determined as 4 µg/mL (≈ 9.03 µM).

Turning to `Cc1cc(C)cc(CNC(=S)Nc2ccc(NC(=O)c3ccccc3F)cc2)c1` [Example 725], in the assay with HSV-1, the “IC50 (ug/ml) HSV” value is greater than 10 µg/mL.

On to `CC(NC(=S)Nc1ccc(NC(=O)c2cccc3cccnc23)cc1)c1ccc(F)cc1` (centres unmarked) [Example 991, Quinoline-8-carboxylic acid (4-{3-[1-(4-fluoro-phenyl)-ethyl]-thioureido}-phenyl)-amide], for which the values for the IC50 with VZV strain Ellen and in the assay with HSV-1 were 0.1 µg/mL (≈ 0.225 µM) and greater than 10 µg/mL, respectively.

As to `COc1ccc(C(=O)Nc2ccc(NC(=S)Nc3cc(Cl)c(OC)c(Cl)c3)cc2)cc1` [Example 880, N-{4-[3-(3,5-Dichloro-4-methoxy-phenyl)-thioureido]-phenyl}-4-methoxy-benzamide], in the assay with VZV strain Ellen, the inhibition at 10 µg/mL worked out at 30%. Besides, the IC50 with VZV strain Ellen and in the assay on HSV-1 was greater than 10 µg/mL throughout.

For `C[C@H](NC(=S)Nc1ccc(NC(=O)c2ccccc2F)cc1)c1ccc(Br)cc1` [Example 1004, (S)-N-(4-{3-[1-(4-Bromo-phenyl)-ethyl]-thioureido}-phenyl)-2-fluoro-benzamide], the IC50 is 0.06 µg/mL (≈ 0.127 µM) in the assay with VZV strain Ellen and greater than 10 µg/mL with HSV-1.

With `CC(NC(=S)Nc1ccc(NC(=O)c2ccc(C#N)cc2)cc1)c1ccc(F)cc1` (centres unmarked) [Example 1022, 4-Cyano-N-(4-{3-[1-(4-fluoro-phenyl)-ethyl]-thioureido}-phenyl)-benzamide], the IC50 was 1.5 µg/mL (≈ 3.58 µM) in the assay with VZV strain Ellen and greater than 10 µg/mL in the assay on HSV-1.

Take `COc1ccc(C(C)NC(=S)Nc2ccc(NC(=O)c3ccccc3F)cc2)cc1Cl` (centres unmarked) [Example 1000, N-(4-{3-[1-(3-Chloro-4-methoxy-phenyl)-ethyl]-thioureido}-phenyl)-2-fluoro-benzamide]: the results for the IC50 in the assay on VZV strain Ellen and in the assay with HSV-1 were 6 µg/mL (≈ 13.1 µM) and greater than 10 µg/mL, respectively.

On to `COc1cc(C)c(Cl)cc1NC(=S)Nc1ccc(NC(=O)c2ccccc2C)cc1` [Example 850, N-{4-[3-(5-Chloro-2-methoxy-4-methyl-phenyl)-thioureido]-phenyl}-2-methyl-benzamide], for which, in the assay on VZV strain Ellen, the inhibition at 10 µg/mL stood at 28% and the IC50 amounted to 5 µg/mL (≈ 11.4 µM). Moreover, the IC50 in the assay with HSV-1 came to 0.09 µg/mL (≈ 0.205 µM).

Take `O=C(Nc1ccc(NC(=S)NCCc2ccccc2F)cc1)c1ccccc1F` [Example 721]: the “IC50 (ug/ml) HSV” value with HSV-1 was greater than 10 µg/mL.

For the compound `CC(NC(=S)Nc1ccc(NC(=O)c2ccc3ncccc3c2)cc1)c1ccc(F)cc1` (centres unmarked) [Example 990, Quinoline-6-carboxylic acid (4-{3-[1-(4-fluoro-phenyl)-ethyl]-thioureido}-phenyl)-amide], in the assay on VZV strain Ellen, the IC50 worked out at 3.5 µg/mL (≈ 7.87 µM).

With `COc1ccc(NC(=S)Nc2ccc(NC(=O)c3ccccc3F)cc2)cc1I` [Example 810], in the assay with VZV strain Ellen, the IC50 is greater than 7.5 µg/mL.

On to `O=C(Nc1ccc(NC(=S)Nc2ccc(C(F)(F)F)c(Cl)c2)cc1)c1ccccc1F` [Example 911, N-{4-[3-(3-Chloro-4-trifluoromethyl-phenyl)-thioureido]-phenyl}-2-fluoro-benzamide], for which, in the assay with VZV strain Ellen, the inhibition at 10 µg/mL was found to be 38% and the IC50 was greater than 10 µg/mL.

Regarding `COc1ccc(NC(=S)Nc2ccc(NC(=O)c3ccccc3OC)cc2)cc1Cl` [Example 818, N-{4-[3-(3-Chloro-4-methoxy-phenyl)-thioureido]-phenyl}-2-methoxy-benzamide], in the assay with VZV strain Ellen, the inhibition at 10 µg/mL amounted to 32% and the IC50 was greater than 10 µg/mL.

On to `O=C(Nc1ccc(NC(=S)NCc2ccc(N3CCCCC3)c(C(F)(F)F)c2)cc1)c1ccccc1F` [Example 616], for which the “IC50 (ug/ml) VZV” value in the assay with VZV strain Ellen is greater than 10 µg/mL.

Turning to `CCC(C)Cc1cc(NC(=S)Nc2ccc(NC(=O)c3ccccc3F)cc2)cc(C(F)(F)F)c1` (centres unmarked) [Example 577], the “IC50 (ug/ml) VZV” value in the assay on VZV strain Ellen is greater than 7.5 µg/mL.

For `O=C(Nc1ccc(NC(=S)NCc2cc(F)cc(C(F)(F)F)c2)cc1)c1ccccc1F` [Example 586], the IC50 in the assay on VZV strain Ellen was greater than 10 µg/mL.

As for `CC(C)(NC(=S)Nc1ccc(NC(=O)c2ccccc2F)cc1)c1ccccc1` [Example 727], in the assay with HSV-1, the “IC50 (ug/ml) HSV” value was greater than 10 µg/mL.

`CC(C)(C)c1ccc(CNC(=S)Nc2ccc(NC(=O)c3ccccc3F)cc2)cc1` [Example 724]: the “IC50 (ug/ml) HSV” value in the assay with HSV-1 is greater than 10 µg/mL.

`COc1cc(OC)c(NC(=S)Nc2ccc(NC(=O)c3ccccc3-c3ccccc3)cc2)cc1Cl` [Example 182]: the “IC50 (ug/ml) VZV” value in the assay with VZV strain Ellen is greater than 10 µg/mL. Besides, the “% inhibition 10 ug/ml VZV” value with VZV strain Ellen (10 ug/ml) is listed as 32%.
